The results in this text go back to US10786690B2, “Amide derivatives of polycaffeoylquinic acids, process for producing same and uses thereof” (TEMISIS, priority 2016, dated 2020).

Structures are written as SMILES.

One test has as its system LTB4. As to the kind of experiment: LTB4 production by NHEKs in the inflammatory state (arachidonic acid + calcium ionophore), ELISA. Conditions: arachidonic acid 1 μM + calcium ionophore A23187 2 h, compounds 50 μM, NDGA 2 μM, relative to induced control. It is filed as cell-based, human. Here is the method:
(§1) The study was carried out on Normal Human Epidermal Keratinocytes (NHEKs) (Lonza, CC-2507, origin: foreskin) in monolayer culture in Epilife medium (Invitrogen, M-EPI-500-A) containing the components of the Human Keratinocyte Growth Supplement (HKGS) mixture (Invitrogen, S-001-K) added separately, except hydrocortisone having anti-inflammatory properties.
The induction of LTB4 production having a very fast kinetics, the scheme was adapted. In this case, the inflammatory state was induced for 2 h by applying arachidonic acid (a.a./1 μM/ethanol) combined with calcium ionophore A23187 (2 μM/DMSO). Nordihydroguaiaretic acid (NDGA) was used as reference molecule (2 μM/ethanol).
(§2) The effect of the compounds was studied by applying them to the keratinocyte culture medium 2 h prior to induction of the inflammatory state as well as during induction (2 h for LTB4, 24 h for IL-8, PGE2, IL-6 and TNF-α).
(§3) Each condition was carried out in triplicate cultures and the supernatants were recovered at the end of the various treatments.
(§4) Quantification of the various inflammatory mediators was carried out with specific kits, based on a standard curve, according to the instructions provided by the kits' suppliers, R&D Systems and Cayman Chemical.
(§5) Before induction of the inflammatory state, the NHEKs were treated with the compounds and reference molecules for 2 h. The inflammatory state was then induced according to the conditions described in the methodology section, the culture supernatants were collected, and the various inflammatory mediators were quantified by the ELISA technique.
The effects of the compounds on LTB4 production are shown in FIG. 8 and are expressed as a percentage of the treatment with arachidonic acid (a.a.) combined with calcium ionophore A23187 set at 100%.
A general note: In an ELISA, binding on a coated surface is turned into a signal by an enzyme label.

In test [1] the test system is Normal Human Epidermal Keratinocytes (NHEKs). As to the kind of experiment: Microscopic observation of NHEK cell survival 48 h after inflammatory treatment. In kind it is cell-based. Conditions: for Result at 48 h: cell survival: NHEK cultures 48 h after inflammatory treatment (10 ng/mL PMA + 2 μM calcium ionophore A23187), microscopic observation; for effect on cell survival / cellular protection against inflammation: NHEK cultures 48 h after inflammatory treatment, summary in words. Here is the method:
The cells, treated and not treated by the compounds to be tested, were observed under an optical microscope 48 h after the following inflammatory treatment: 10 ng/mL PMA/H2O+2 μM calcium ionophore A23187/DMSO.
NHEKs were brought into contact or not with the compounds to be tested. After 2 h, the cells underwent or not an inflammation treatment (10 ng/mL PMA/H2O+2 μM calcium ionophore A23187/DMSO).
The cells were observed under an optical microscope 48 h after the inflammatory treatment.

In the next test the test system is PGE2. As to the kind of experiment: PGE2 production by NHEKs in the inflammatory state (PMA), ELISA. It is filed as cell-based, human. Conditions: PMA 10 ng/ml 24 h, compounds 50 μM, indomethacin 10 μg/ml, relative to PMA induced control (100%). The protocol:
as §1
For the quantification of IL-8 and PGE2, the inflammatory state of the NHEKs in culture was induced by treatment with PMA (phorbol myristate acetate/10 ng/ml/H2O) for 24 h. Induction of IL-6 was achieved by treatment with PMA (10 ng/ml/H2O) combined with calcium ionophore A23187 (2 μM/DMSO) in medium containing calcium at a concentration of 0.8 mM. TNF-α secretion was induced by a combination of PMA (10 ng/ml/H2O) and calcium ionophore A23187 (2 μM/DMSO) applied for 24 h (TNF-α) in medium containing 0.06 mM calcium. The reference molecules used are dexamethasone (10 μM/H2O) and indomethacin (10 μg/ml/ethanol).
as §2, §3, §4, §5
The effect of the compounds on PGE2 production is presented in FIG. 5 and is expressed as a percentage of the PMA treatment set at 100%.

The next test has as its system TNF-α. As to the kind of experiment: TNF-α production by NHEKs in the inflammatory state (PMA + calcium ionophore, 0.06 mM Ca2+), ELISA. It is filed as cell-based, human. The following applies: PMA + calcium ionophore A23187 24 h, compounds 50 μM, dexamethasone 10 μM, relative to induced control. Here is the method: as §1
(§6) For the quantification of IL-8 and PGE2, the inflammatory state of the NHEKs in culture was induced by treatment with PMA (phorbol myristate acetate/10 ng/ml/H2O) for 24 h. Induction of IL-6 was achieved by treatment with PMA (10 ng/ml/H2O) combined with calcium ionophore A23187 (2 μM/DMSO) in medium containing calcium at a concentration of 0.8 mM. […]
as §4
(§7) Before induction of the inflammatory state, the NHEKs were treated with the compounds and reference molecules for 2 h. The inflammatory state was then induced according to the conditions described in the methodology section, the culture supernatants were collected, and the various inflammatory mediators were quantified by the ELISA technique. […]

Another test relates to IL-8. As to the kind of experiment: IL-8 production by NHEKs in the inflammatory state (PMA), ELISA. In kind it is cell-based, human. The following applies: PMA 10 ng/ml 24 h, compounds 50 μM, dexamethasone 10 μM, relative to PMA induced control (100%). Here is the method: as §1, §6, §4, §7
Another test concerns IL-6. The test is described as follows: IL-6 production by NHEKs in the inflammatory state (PMA + calcium ionophore, 0.8 mM Ca2+), ELISA. Conditions: PMA + calcium ionophore A23187, 0.8 mM Ca2+, compounds 50 μM, dexamethasone 10 μM, relative to induced control. It is filed as cell-based, human. The protocol: as §1
For the quantification of IL-8 and PGE2, the inflammatory state of the NHEKs in culture was induced by treatment with PMA (phorbol myristate acetate/10 ng/ml/H2O) for 24 h. […]
as §4, §5
The effect of the compounds on IL-6 production by NHEKs in the inflammatory state is shown in FIG. 6 and is expressed as a percentage of the treatment with PMA combined with calcium ionophore A23187 (under high-calcium conditions: 0.8 mM Ca2+).

Consider `CC(Cc1ccc(O)c(O)c1)C(C)Cc1ccc(O)c(O)c1` (stereo not drawn) [NDGA, Nordihydroguaiaretic acid, reference compound], for which the LTB4 production result in the test on LTB4 is “very highly significantly inhibits”.
For `O=C(/C=C/c1ccc(O)c(O)c1)O[C@@H]1[C@H](O)C[C@@](O)(C(=O)O)C[C@H]1OC(=O)/C=C/c1ccc(O)c(O)c1` [PAT964, 3,4-O-Dicaffeoylquinic], in test [1], the “Result at 48 h: cell survival” value worked out at 10% cell survival and the “effect on cell survival / cellular protection against inflammation” value is listed as “little or no effect on cell survival”.
`O=C(/C=C/c1ccc(O)c(O)c1)O[C@@H]1C[C@](O)(C(=O)O)C[C@@H](OC(=O)/C=C/c2ccc(O)c(O)c2)[C@H]1O` [PAT965, 3,5-O-Dicaffeoylquinic]: in test [1], the “Result at 48 h: cell survival” value is 10% cell survival and the “effect on cell survival / cellular protection against inflammation” value is reported as “little or no effect on cell survival”.
`O=C(/C=C/c1ccc(O)c(O)c1)O[C@H]1[C@H](O)C[C@](O)(C(=O)O)C[C@H]1OC(=O)/C=C/c1ccc(O)c(O)c1` [PAT967, 4,5-O-Dicaffeoylquinic]: the PGE2 production result in the test on PGE2 is “very highly significantly decrease”. In test [1], the “Result at 48 h: cell survival” value is recorded as 10% cell survival and the “effect on cell survival / cellular protection against inflammation” value is “little or no effect on cell survival”.
On to `CCCCCCCCCCCCNC(=O)[C@]1(O)C[C@@H](OC(=O)/C=C/c2ccc(O)c(O)c2)[C@@H](O)[C@H](OC(=O)/C=C/c2ccc(O)c(O)c2)C1` [PAT1648, (2E,2′E)-((1R,2S,3R,5S)-5-(dodecylcarbamoyl)-2,5-dihydroxycyclohexane-1,3-diyl) bis(3-(3,4-dihydroxyphenyl) acrylate)], for which the TNF-α production entry in the test on TNF-α was “most marked effects and are more effective than dexamethasone itself”. The LTB4 production entry in the test with LTB4 is given as “block/decrease, in a very highly significant manner”. In addition, the IL-8 production result in the test on IL-8 is on record as “inhibit/reduce IL-8 production to the baseline level”. In addition, the PGE2 production entry in the test on PGE2 is listed as “very highly significantly decrease”. Moreover, in the test with IL-6, the IL-6 production result was “largest decreases and are more effective than dexamethasone itself”. In test [1], the “Result at 48 h: cell survival” value is given as “Confluent culture: 100%” and the “effect on cell survival / cellular protection against inflammation” value is “strong cellular protection against inflammation”.
As for `CCCCNC(=O)[C@]1(O)C[C@@H](OC(=O)/C=C/c2ccc(O)c(O)c2)[C@@H](O)[C@H](OC(=O)/C=C/c2ccc(O)c(O)c2)C1` [PAT1658, (2E,2′E)-((1R,2S,3R,5S)-5-(butylcarbamoyl)-2,5-dihydroxycyclohexane-1,3-diyl) bis(3-(3,4-dihydroxyphenyl)acrylate)], the LTB4 production result in the test with LTB4 was “block/decrease, in a very highly significant manner”. In addition, in the test on PGE2, the PGE2 production entry is on record as “very highly significantly decrease”. Besides, in test [1], the “Result at 48 h: cell survival” value amounted to 80% cell survival and the “effect on cell survival / cellular protection against inflammation” value is “strong cellular protection against inflammation”.
Regarding `C[C@@H]1C[C@H]2[C@@H]3CCC4=CC(=O)C=C[C@]4(C)[C@@]3(F)[C@@H](O)C[C@]2(C)[C@@]1(O)C(=O)CO` [dexamethasone], in test [1], the “Result at 48 h: cell survival” value turned out to be 10% cell survival.
As to `COc1ccc2c(c1)c(CC(=O)O)c(C)n2C(=O)c1ccc(Cl)cc1` [indomethacin, reference compound], the PGE2 production entry in the test on PGE2 is “reduces this PGE2 production in the culture supernatants to an almost undetectable level”.
